Columns and labels:
[1] = target: T1, Kinesin-like protein KIF11 (Homo sapiens, UniProt P52732); assay: Inhibition of human Eg5 motor domain (residues 2-386) ATPase activity expressed in Escherichia coli assessed as release of inorganic phosphate after 30 mins
T1 sequence (P52732 whole entry): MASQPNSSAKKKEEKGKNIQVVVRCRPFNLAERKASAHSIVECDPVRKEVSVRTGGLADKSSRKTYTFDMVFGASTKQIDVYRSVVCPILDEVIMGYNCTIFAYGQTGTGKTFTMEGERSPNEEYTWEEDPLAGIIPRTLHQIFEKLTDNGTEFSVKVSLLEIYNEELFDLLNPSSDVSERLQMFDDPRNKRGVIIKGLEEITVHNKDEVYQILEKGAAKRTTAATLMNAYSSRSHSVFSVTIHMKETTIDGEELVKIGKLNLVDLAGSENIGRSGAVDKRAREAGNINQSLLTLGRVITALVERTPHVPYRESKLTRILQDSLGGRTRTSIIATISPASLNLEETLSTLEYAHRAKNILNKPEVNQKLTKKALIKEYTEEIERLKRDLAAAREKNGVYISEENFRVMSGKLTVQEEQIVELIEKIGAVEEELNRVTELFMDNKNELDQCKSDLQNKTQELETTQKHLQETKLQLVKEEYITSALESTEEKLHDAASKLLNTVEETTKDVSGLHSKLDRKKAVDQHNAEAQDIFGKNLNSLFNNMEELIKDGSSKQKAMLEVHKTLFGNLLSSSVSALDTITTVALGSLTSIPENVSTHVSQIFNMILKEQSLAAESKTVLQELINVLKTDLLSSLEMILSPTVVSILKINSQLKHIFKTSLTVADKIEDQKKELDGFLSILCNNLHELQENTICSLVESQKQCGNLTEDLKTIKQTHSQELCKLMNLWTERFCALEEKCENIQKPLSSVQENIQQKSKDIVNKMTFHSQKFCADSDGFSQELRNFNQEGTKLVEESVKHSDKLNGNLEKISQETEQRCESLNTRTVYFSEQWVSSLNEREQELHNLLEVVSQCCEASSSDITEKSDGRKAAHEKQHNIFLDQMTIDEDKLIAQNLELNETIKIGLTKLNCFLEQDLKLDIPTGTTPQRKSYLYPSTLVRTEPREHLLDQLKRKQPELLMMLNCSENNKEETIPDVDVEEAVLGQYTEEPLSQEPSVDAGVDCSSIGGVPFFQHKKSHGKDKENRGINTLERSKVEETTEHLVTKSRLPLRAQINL

Aurora kinase A = target: T2, Aurora kinase A (Homo sapiens, UniProt O14965); assay: Inhibition of human purified recombinant aurora-A kinase
T2 sequence (O14965 whole entry): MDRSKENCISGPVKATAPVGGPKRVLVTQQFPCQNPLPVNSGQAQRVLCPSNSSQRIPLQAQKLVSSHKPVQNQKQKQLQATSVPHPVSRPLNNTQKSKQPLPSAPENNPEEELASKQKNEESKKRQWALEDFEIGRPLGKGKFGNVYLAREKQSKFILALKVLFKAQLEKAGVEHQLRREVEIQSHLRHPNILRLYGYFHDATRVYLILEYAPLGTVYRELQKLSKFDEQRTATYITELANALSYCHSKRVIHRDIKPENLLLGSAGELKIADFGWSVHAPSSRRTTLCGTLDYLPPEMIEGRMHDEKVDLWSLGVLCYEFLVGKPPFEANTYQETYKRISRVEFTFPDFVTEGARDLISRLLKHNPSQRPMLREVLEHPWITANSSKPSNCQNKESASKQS

HCT-116 [2] = assay: cells; details: Homo sapiens, HCT-116, 72 h
HepG2 = assay: cells; details: Homo sapiens, HepG2, 72 h
Description: Cytotoxicity against human HepG2 cells after 72 hrs by MTT assay

A2780 = assay: cells; details: Homo sapiens, A2780, 72 h
Description: Cytotoxicity against human A2780 cells after 72 hrs by MTT assay

HCT-116 [3] = assay: Ratio of CPUYL064 IC50 to compound IC50 for human HCT116 cells

CC1=C(C(=O)Nc2ccc(F)c(Cl)c2)C(c2ccccc2)c2c[nH]nc2N1 (configuration not stated)
IC50 [1]: 0.17 µM

CC1=C(C(=O)Nc2ccc(F)cc2)C(c2ccccc2)c2c[nH]nc2N1 (configuration not stated)
IC50 [1]: 0.14 µM

COc1ccc(NC(=O)C2=C(C)Nc3n[nH]cc3C2c2cccs2)cc1 (configuration not stated)
IC50 [1]: 0.0025 µM

CC1=C(C(=O)Nc2ccc([N+](=O)[O-])cc2)C(c2cccs2)c2c[nH]nc2N1 (configuration not stated)
IC50 [1]: 0.82 µM

CC1=C(C(=O)Nc2ccc(C(F)(F)F)cc2)C(c2cccs2)c2c[nH]nc2N1 (configuration not stated)
IC50 [1]: 0.32 µM

COc1ccc(NC(=O)C2=C(C)Nc3n[nH]cc3C2c2ccco2)cc1 (configuration not stated)
IC50 [1]: 0.0011 µM

CC1=C(C(=O)Nc2ccc([N+](=O)[O-])cc2)C(c2ccco2)c2c[nH]nc2N1 (configuration not stated)
IC50 [1]: 2.76 µM

CC1=C(C(=O)Nc2ccc(C(F)(F)F)cc2)C(c2ccco2)c2c[nH]nc2N1 (configuration not stated)
IC50 [1]: 1.06 µM

CC1=C(C(=O)Nc2ccc(F)c(Cl)c2)C(c2ccco2)c2c[nH]nc2N1 (configuration not stated)
IC50 [1]: 0.4 µM

CC1=C(C(=O)Nc2ccc(F)cc2)C(c2ccco2)c2c[nH]nc2N1 (configuration not stated)
IC50 [1]: 10.4 µM

COc1ccc(NC(=O)C2=C(C)Nc3nc4ccccc4n3C2c2ccco2)cc1 (configuration not stated)
IC50 (Aurora kinase A): 7.58 µM | IC50 (HCT-116 [2]): 8.71 µM | IC50 (HepG2): 4.97 µM | IC50 [1]: 2.46 µM | IC50 (A2780): 9.34 µM

CC1=C(C(=O)Nc2ccc([N+](=O)[O-])cc2)C(c2ccco2)n2c(nc3ccccc32)N1 (configuration not stated)
IC50 (Aurora kinase A): 3 µM | IC50 (HCT-116 [2]): 11.5 µM | IC50 (HepG2): 13.5 µM | IC50 [1]: 20.9 µM | IC50 (A2780): 3.05 µM

CC1=C(C(=O)Nc2ccc(C(F)(F)F)cc2)C(c2ccco2)n2c(nc3ccccc32)N1 (configuration not stated)
IC50 (Aurora kinase A): 1.32 µM | IC50 (HCT-116 [2]): > 50 µM | IC50 [1]: 3.32 µM

CC1=C(C(=O)Nc2ccc(F)c(Cl)c2)C(c2ccco2)n2c(nc3ccccc32)N1 (configuration not stated)
IC50 (Aurora kinase A): 5.73 µM | IC50 (HCT-116 [2]): 10.9 µM | IC50 (HepG2): 26 µM | IC50 [1]: 0.96 µM | IC50 (A2780): > 50 µM

CC1=C(C(=O)Nc2ccc(F)cc2)C(c2ccco2)n2c(nc3ccccc32)N1 (configuration not stated)
Ratio IC50 (HCT-116 [3]): 2.5 | IC50 (Aurora kinase A): 6.15 µM | IC50 (HCT-116 [2]): 4.96 µM | IC50 (HepG2): 7.38 µM | IC50 [1]: 5.65 µM | IC50 (A2780): > 50 µM

CC1=C(C(=O)Nc2ccc(Cl)cc2)C(c2ccccc2)C2=C(CC(C)(C)CC2=O)N1 (configuration not stated)
IC50 [1]: 0.18 µM

CC1=C(C(=O)Nc2ccc(F)c(Cl)c2)C(c2cccs2)c2c[nH]nc2N1 (configuration not stated)
IC50 [1]: 0.44 µM

COc1ccc(NC(=O)C2=C(C)Nc3n[nH]cc3C2c2ccccc2)cc1 (configuration not stated)
IC50 [1]: 2.82 µM

CC1=C(C(=O)Nc2ccc([N+](=O)[O-])cc2)C(c2ccccc2)c2c[nH]nc2N1 (configuration not stated)
IC50 [1]: 0.2 µM

CC1=C(C(=O)Nc2ccc(C(F)(F)F)cc2)C(c2ccccc2)c2c[nH]nc2N1 (configuration not stated)
IC50 [1]: 0.4 µM

CN(C)c1ccc(-c2nc3cc(Cl)cnc3[nH]2)cc1
IC50 (Aurora kinase A): 4.97 µM | IC50 (HCT-116 [2]): 4.71 µM | IC50 (HepG2): 5.85 µM | IC50 [1]: 40.2 µM | IC50 (A2780): 4.26 µM

CCC(c1nc2cc(Cl)ccc2c(=O)n1Cc1ccccc1)N(CCCN(C)C)C(=O)c1ccc(Br)cc1 (configuration not stated) [CK0106023]
IC50 (Aurora kinase A): > 50 µM | IC50 (HCT-116 [2]): 0.94 µM | IC50 (HepG2): 2.1 µM | IC50 [1]: 0.029 µM | IC50 (A2780): 3 µM

CCOC(=O)C1=C(C)NC(=S)NC1c1cccc(O)c1 (configuration not stated) [MONASTROL]
IC50 (Aurora kinase A): > 50 µM | IC50 (HCT-116 [2]): > 50 µM | IC50 [1]: 5.47 µM

— ChEMBL document CHEMBL1275338, “Design, synthesis and bioevaluation of dihydropyrazolo[3,4-b]pyridine and benzo[4,5]imidazo[1,2-a]pyrimidine compounds as dual KSP and Aurora-A kinase inhibitors for anti-cancer agents” (Bioorg Med Chem, 2010)
